This is an account of results in ChEMBL document CHEMBL1140229, “Flavanones from the stem bark of Erythrina abyssinica” (Bioorg Med Chem, 2008).

The source made the active and inactive calls. No cut-off for these calls is given here. Bounds are passed on as bounds.

For the first assay, the target named is T1, Tyrosine-protein phosphatase non-receptor type 1 (Homo sapiens, UniProt P18031).
T1 sequence (P18031 whole entry): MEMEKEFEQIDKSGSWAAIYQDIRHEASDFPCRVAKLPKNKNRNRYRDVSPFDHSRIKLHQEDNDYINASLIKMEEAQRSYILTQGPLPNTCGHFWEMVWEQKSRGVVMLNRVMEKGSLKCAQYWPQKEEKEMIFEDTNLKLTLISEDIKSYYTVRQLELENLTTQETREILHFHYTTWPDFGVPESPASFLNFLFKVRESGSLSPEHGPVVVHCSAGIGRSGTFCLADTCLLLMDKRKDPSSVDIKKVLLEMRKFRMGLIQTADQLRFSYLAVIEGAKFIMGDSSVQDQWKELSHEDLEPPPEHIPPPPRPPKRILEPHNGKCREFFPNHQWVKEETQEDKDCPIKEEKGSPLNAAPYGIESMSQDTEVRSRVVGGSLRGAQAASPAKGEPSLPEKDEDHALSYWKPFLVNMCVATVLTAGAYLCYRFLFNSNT
The assay can be described thus: (§1) Inhibition of human recombinant PTP1B.
For the compound `CCCCCCCCCCCCCCCC(=O)C1=C(O)[C@@H](CO)OC1=O`, the IC50 is 4.7 µM. Same read-out and setting: for `CC1(C)Oc2c(O)cc([C@@H]3CC(=O)c4c(O)cc(O)cc4O3)cc2C[C@@H]1O` [SIGMOIDIN D] the value was > 60 µM.

For the compound `COc1cc([C@@H]2CC(=O)c3c(O)cc(O)cc3O2)cc2c1OC(C)(CO)C=C2` (some centres undefined), the IC50 was 17.9 µM. Same read-out and setting: for `CC1(CO)C=Cc2cc([C@@H]3CC(=O)c4c(O)cc(O)cc4O3)cc(O)c2O1` (some centres undefined) the value was > 60 µM; for `CC1(C)Oc2ccc([C@@H]3CC(=O)c4c(O)cc(O)cc4O3)cc2C(O)C1O` (some centres undefined), > 60 µM; for `CC1(C)CC(=O)c2cc([C@@H]3CC(=O)c4c(O)cc(O)cc4O3)cc(O)c2O1`, > 60 µM.

On to `CC1(C)Oc2c(O)cc([C@@H]3CC(=O)c4ccc(O)cc4O3)cc2CC1O` (some centres undefined), for which the IC50 was > 60 µM. On the same count and under the same terms, the result for `CC1(C)C=Cc2cc([C@@H]3CC(=O)c4c(O)cc(O)cc4O3)c3c(c2O1)OC(C)(C)C=C3` reads > 60 µM; that for `CC(C)=CCc1c([C@@H]2CC(=O)c3c(O)cc(O)cc3O2)cc(O)c2c1C=CC(C)(C)O2`, 13.9 µM. Turning to `C=C(C)/C=C/c1cc([C@@H]2CC(=O)c3c(O)cc(O)cc3O2)cc(CC=C(C)C)c1OC` [BURTTINONEDEHYDRATE], the IC50 amounted to 21.6 µM. Turning to `CC(C)=CCc1c([C@@H]2CC(=O)c3c(O)cc(O)cc3O2)cc2c(c1O)OC(C)(C)C(O)C2O` (some centres undefined), the IC50 came out at 18.2 µM. Turning to `CC(C)=CCc1cc([C@@H]2CC(=O)c3c(O)cc(O)cc3O2)cc2c1OC(C)(C)C(O)C2O` (some centres undefined), the IC50 is 19 µM.

For `CC1(C)C(C2CC(=O)c3ccccc3O2)=C(O)C(O)=C2OC(O)C(O)C(O)C21` (centres undefined) [SIGMOIDIN G], the IC50 was > 60 µM. As to `COc1c(/C=C/C(C)(C)O)cc([C@@H]2CC(=O)c3c(O)cc(O)cc3O2)cc1CC=C(C)C` [BURTTINONE], the IC50 was 18.9 µM. On to `CC(C)=CCc1cc([C@@H]2CC(=O)c3c(O)cc(O)cc3O2)cc2c1OC(C)(C)C(O)C2` (some centres undefined), for which the IC50 is 14.9 µM.

In the case of `CC1(C)Oc2c(O)cc([C@@H]3CC(=O)c4ccc(O)cc4O3)cc2C(O)C1O` (some centres undefined), the IC50 was > 60 µM. On the same count and under the same terms, for `COc1cc([C@@H]2CC(=O)c3c(O)cc(O)cc3O2)cc2c1OC(C)(C)C(O)C2` (some centres undefined) the value was 18.2 µM.

Another assay concerns the target T2, Tyrosine-protein phosphatase non-receptor type 1 (Homo sapiens) (UniProt P18031).
T2 sequence (whole entry): T1 sequence (P18031 whole entry)
The assay is described as §1.
Turning to `O=C1C[C@@H](c2ccc(O)cc2)Oc2cc(O)cc(O)c21`, the result was inactive. As for `O=C1C[C@@H](c2ccc(O)cc2)Oc2cc(O)ccc21`, the result was inactive.

One may read the IC50 as the concentration needed to halve the response being measured.
